Experimental data: patent publication US6548062B2, “Method of treating cancer with anti-neurotrophin agents” (Cephalon, Inc., priority 2000, dated 2003)

What was measured:
[1] = test system: TSU-Pr1 human prostate tumor cells; assay: TSU-Pr1 prostate cancer xenograft growth in nude mice; type: in vivo; conditions: Experiment #1
Experimental: (§1) TSU-Pr1 human prostate tumor cells were injected subcutaneously into the flank of female athymic nude mice (nu/nu; 5×10^6 cells/mice). Upon xenografts reaching 100-500 mm^3, the mice were randomized and divided into four experimental groups. One group was administered a cocktail of neurotrophin antibodies (anti-NGF, BDNF, NT-3, and NT4/5). Each dose of antibody cocktail (100 μl) contained 100 μg of each neurotrophin antibody. The second experimental group was administered normal rabbit IgG (400 μg/100 μl; PeproTech 500-P00) as a control. All antibodies were administered intratumorally (50 μl) at five injection sites and peritumorally (50 μl) at five injection sites. […] Tumor length and width were measured every two to three days (Days 1, 3, 5, 8, 10, 12, and 15).
The fourth experimental group received vehicle only (100 μl) according to the dosing schedule of the third experimental group. Tumor length and width were measured every two to three days (Days 1, 3, 5, 8, 10, 12, and 15).
Tumor volumes were calculated as described above. The mean tumor volumes and standard errors were calculated as described above. […] Probability values were calculated as described above. […]
Tumor volumes were calculated as described above. The mean tumor volumes and standard errors were also calculated as described above. […] Probability values were calculated as described above.

[2] = test system: AsPC-1 human pancreatic tumor cells; assay: AsPC-1 pancreatic cancer xenograft growth in nude mice; type: in vivo
Experimental: as §1, with “AsPC-1” for “TSU-Pr1”, “pancreatic” for “prostate”, “15). […]” for “15).”
Tumor volumes were calculated as described above. The mean tumor volumes and standard errors were also calculated as described above. […] Probability values were calculated as described above. […]
Tumors were measured every 2-4 days using a vernier caliper. Tumor volumes were calculated as described above. The mean tumor volumes and standard errors were also calculated as described above. […] Statistical analyses were calculated as described above with p≦0.05 deemed significant. […]

[3] = test system: AsPC-1 human pancreatic tumor cells; conditions: previously published data; cited from earlier work
[4] = test system: CFPAC human pancreatic carcinoma cells; conditions: previously published data; cited from earlier work
[5] = test system: PC-3 human prostate tumor cells; assay: PC-3 prostate cancer xenograft growth in nude mice; type: in vivo, human tumor cells in athymic nude mice; conditions: 10 mg/kg s.c. BID
Experimental: PC-3 human prostate tumor cells (5×10^6 cells/mice) were injected subcutaneously into the flank of eight to ten week old, female athymic nude mice (nu/nu; Charles River, Raleigh, N.C.). Mice weighed between 22-25 grams on the day of tumor implantation. Upon xenografts reaching 100-500 mm^3, the mice were randomized and divided into experimental groups. Some experimental groups were administered a cocktail of neurotrophin antibodies (4×25 μg each, or 4×100 μg each of anti-NGF, BDNF, NT-3, and NT4/5) or normal rabbit IgG (100 μg or 400 μg; PeproTech 500-P00) in sterile 1×PBS (total volume of 100 μl). All antibodies were administered intratumorally (50 μl) at five injection sites and peritumorally, subcutaneously (50 μl) at five injection sites. […] Tumor length and width were measured every two to three days. […] Tumor length and width were measured every two to three days (days 1, 3, 5, 8, 10, 12, 15, 17, 19 and 22).
Tumor volumes were calculated as (length×width (length+width)/2))×0.526 (Isaacs, Canc. […] The mean tumor volumes and standard errors were calculated (SigmaStat, Jandel Scientific, San Rafel, Calif.). […] Relative tumor volumes were calculated as (mean vt mean vo), where vt refers to tumor volume on a given day and vo is the volume of the same tumor at initiation of dosing (day 1). […] Probability values were calculated by the Mann-Whitney Rank Sum Test (SigmaStat).

trkA = trkA (Homo sapiens, UniProt P04629); conditions: ELISA (stated for CEP-751); read-out: IC50 trkA inhibition; cited from earlier work
Chain of trkA (P04629 33-796, species assumed): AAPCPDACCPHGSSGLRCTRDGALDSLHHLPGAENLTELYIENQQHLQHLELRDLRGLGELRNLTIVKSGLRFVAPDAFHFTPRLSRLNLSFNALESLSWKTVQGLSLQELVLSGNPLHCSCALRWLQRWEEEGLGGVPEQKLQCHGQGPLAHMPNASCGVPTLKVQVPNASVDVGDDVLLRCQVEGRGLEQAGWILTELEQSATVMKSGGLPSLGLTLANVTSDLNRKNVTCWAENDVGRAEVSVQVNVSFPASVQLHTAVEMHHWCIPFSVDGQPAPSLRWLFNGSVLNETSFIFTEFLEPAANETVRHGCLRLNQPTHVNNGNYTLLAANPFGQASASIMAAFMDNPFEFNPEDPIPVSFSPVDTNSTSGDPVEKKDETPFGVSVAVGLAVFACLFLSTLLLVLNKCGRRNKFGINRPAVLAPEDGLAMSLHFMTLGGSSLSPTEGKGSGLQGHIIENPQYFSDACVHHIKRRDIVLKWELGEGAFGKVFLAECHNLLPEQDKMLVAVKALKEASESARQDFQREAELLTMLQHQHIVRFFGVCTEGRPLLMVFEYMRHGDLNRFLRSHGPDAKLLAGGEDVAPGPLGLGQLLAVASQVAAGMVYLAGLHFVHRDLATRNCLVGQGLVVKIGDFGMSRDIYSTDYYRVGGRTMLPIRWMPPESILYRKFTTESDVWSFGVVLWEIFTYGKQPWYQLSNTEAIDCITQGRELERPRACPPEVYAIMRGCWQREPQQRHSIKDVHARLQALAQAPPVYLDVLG

Structure (SMILES)	Minimum T/C (absolute tumor volumes vs vehicle control) ([1]; 10 mg/kg sc BID, Days 12 and 15)	Tolerability (deaths or morbidity) ([1]; nude mice bearing TSU-Pr1 xenografts)	Minimum T/C (absolute tumor volumes vs vehicle control) ([2]; 10 mg/kg sc BID, Day 15)	Tolerability (deaths or morbidity) ([2]; nude mice bearing AsPC-1 xenografts)	Growth of AsPC-1 tumors [3]	CFPAC tumor growth [4]	Growth of PC-3 tumors relative to vehicle control ([5]; 22 days)	Minimum T/C (absolute tumor volumes vs vehicle control) ([5]; day 19)	IC50 (trkA) [nM]
C[C@]12O[C@H](C[C@]1(O)CO)n1c3ccccc3c3c4c(c5c6ccccc6n2c5c31)CNC4=O [CEP-701]	0.29	well tolerated	0.27	well tolerated	inhibited	insensitive			
CO[C@]1(CO)C[C@H]2O[C@]1(C)n1c3ccccc3c3c4c(c5c6ccccc6n2c5c31)C(=O)NC4 [CEP-751]							inhibited the growth of PC-3 tumors	0.44	3
